Test results as given in PubChem BioAssay AID2060487 (Molecular Pharmacology Branch, DTP, NCI, 2025).

Tested on: 997537-175-T-J1-PDC complex spheroid viability
Test: Anticancer human tumor 997537-175-T-J1-PDC patient-derived colon adenocarcinoma cell line growth inhibition [GQUAD]
Settings: for IC50: curve of first compound; for viability, T/C: stronger effect = lower value
Source text: DNA G-quadruplex Stabilizer Agents in Combinations in Complex Spheroids
A high-throughput screen of multi-cell type tumor spheroids was designed to identify active combinations of DNA G-quadruplex stabilizer agents and targeted small molecules. Complex spheroids include a stromal component modeled by human endothelial cells (HUVEC) and fibroblasts modeled by human mesenchymal stem cells (MSCs). The concentration ranges selected for each drug and investigational agent were based upon clinically achievable concentrations if the clinical Cmax of the agent was known.
Compounds. The drugs and investigational agents: pidnarulex (CX-5461; NSC782164), APTO-253 (NSC789042), BRACO-19 (NSC847499), peposertib (NSC802822), ceralasertib (NSC780249), elimusertib (NSC800525), camonsertib (NSC841442), AZD-1390 (NSC803789), olaparib (NSC753686), talazoparib (NSC767125), ART-558 (NSC835418), sotorasib (NSC818433), MRTX-1133 (NSC836407), SN-38 (NSC673596), topotecan (NSC609699), etoposide (NSC141540), doxorubicin (NSC123127), gemcitabine (NSC613327), 5-fluorouracil (NSC19893), paclitaxel (NSC125973), vemurafenib (NSC761431), panobinostat (NSC761190), R-306465 (JNJ-16241199; NSC773264), adavosertib (NSC754352), TP-3654 (NSC805149), carboplatin (NSC241240), KSQ-4279 (NSC840948), and staurosporine (NSC755774) were obtained from the National Cancer Institute (NCI) Developmental Therapeutics Program Chemical Repository (34). The FDA-approved anticancer drug set is available from the NCI Developmental Therapeutics Program. […] The stock solutions were prepared in dimethyl sulfoxide (DMSO, Sigma-Aldrich, St. Louis, MO, cat. D2650) at 800-fold the tested concentration and stored at -70 degrees C prior to their use. All drugs and investigational agents were tested over a range starting from a high concentration at or near the clinical Cmax and decreasing in half-log increments. If the clinical Cmax for an agent had not been determined, the highest concentration tested was 10 microM.
2.3 Cell Culture. All cells were maintained in an incubator at 37 degrees C and 5% CO2 with 95% humidity. The PDC lines were cultured according to standard operating procedures established by the NCI PDMR. All PDCs were thawed and cultured in Matrigel-coated flasks prepared with a working solution of 1X Ham's F-12 nutrient mix, without supplementation (Invitrogen, cat. 11765054), 100 U/mL penicillin-streptomycin (Invitrogen, cat. 15140122), and 2.5% Matrigel (Corning Inc., cat. 354248) for the first three passages. The 857933-349-R-J2-PDC line was cultured in 6C/Colon 1B media, which includes advanced DMEM/F-12 (Thermo Fisher Scientific, cat. 12634028), 10 mM HEPES (Thermo Fisher Scientific, cat. 15630080), 1X GlutaMAX supplement (Thermo Fisher Scientific, cat. 35050061), 0.1 mg/mL primocin (InvivoGen, cat. ant-pm-2), 10% defined fetal bovine serum, heat inactivated (HyClone Laboratories Inc., cat. SH30070.03HI), 50% L-WRN conditioned media (ATCC, cat. CRL-3276), 1.25 mM N-Acetyl-L-cysteine (Sigma-Aldrich, cat. A9165), 10 mM nicotinamide (Sigma-Aldrich, cat. N0636), 1X B-27 supplement (Thermo Fisher Scientific, cat. 17504044), 1X N-2 supplement (Thermo Fisher Scientific, cat. 17502048), 10 microM Y-27632 dihydrochloride (Tocris Bioscience, cat. 1254), and 50 ng/mL human EGF recombinant protein (Thermo Fisher Scientific, cat. PHG0311). The 485176-168-R4-J1-PDC line was cultured in Panc media, which includes all 6C/Colon 1B media components plus 100 ng/mL human FGF-10 (Thermo Fisher Scientific, cat. 100-26), 500 nM SB-431542 (Selleckchem, cat. S1067), and gastrin (Tocris, cat. 3006).
[…]

[1] = second compound 0.0316 µM, first compound 0.0316 µM
[2] = second compound 0.0316 µM, first compound 0.1 µM
[3] = second compound 0.0316 µM, first compound 0.316 µM
[4] = second compound 0.0316 µM, first compound 1 µM
[5] = second compound 0.0316 µM, first compound 3.16 µM
[6] = second compound 0.0316 µM, first compound 10 µM
[7] = second compound 0.1 µM, first compound 0.0316 µM
[8] = second compound 0.1 µM, first compound 0.1 µM
[9] = second compound 0.1 µM, first compound 0.316 µM
[10] = second compound 0.1 µM, first compound 1 µM
[11] = second compound 0.1 µM, first compound 3.16 µM
[12] = second compound 0.1 µM, first compound 10 µM
[13] = second compound 0.316 µM, first compound 0.0316 µM
[14] = second compound 0.316 µM, first compound 0.1 µM
[15] = second compound 0.316 µM, first compound 0.316 µM
[16] = second compound 0.316 µM, first compound 1 µM
[17] = second compound 0.316 µM, first compound 3.16 µM
[18] = second compound 0.316 µM, first compound 10 µM
[19] = second compound 1 µM, first compound 0.0316 µM
[20] = second compound 1 µM, first compound 0.1 µM
[21] = second compound 1 µM, first compound 0.316 µM
[22] = second compound 1 µM, first compound 1 µM
[23] = second compound 1 µM, first compound 3.16 µM
[24] = second compound 1 µM, first compound 10 µM
[25] = second compound 3.16 µM, first compound 0.0316 µM
[26] = second compound 3.16 µM, first compound 0.1 µM
[27] = second compound 3.16 µM, first compound 0.316 µM
[28] = second compound 3.16 µM, first compound 1 µM
[29] = second compound 3.16 µM, first compound 3.16 µM
[30] = second compound 3.16 µM, first compound 10 µM
[31] = second compound 10 µM, first compound 0.0316 µM
[32] = second compound 10 µM, first compound 0.1 µM
[33] = second compound 10 µM, first compound 0.316 µM
[34] = second compound 10 µM, first compound 1 µM
[35] = second compound 10 µM, first compound 3.16 µM
[36] = second compound 10 µM, first compound 10 µM
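Further: spheroids exposed to the agents for 7 days.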
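Wherever viability, T/C is given: 100% = DMSO vehicle control viability.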

## CC1COCCN1c1cc(-c2ccnn2C)c2ccnc(-c3ccn[nH]3)c2n1 (centres undefined) + CN(C)c1ccc(Nc2c3ccc(NC(=O)CCN4CCCC4)cc3nc3cc(NC(=O)CCN4CCCC4)ccc23)cc1
Second compound 0.0316 µM
  IC50: 800 nM
Second compound 0.1 µM
  IC50: 2460 nM
Second compound 0.316 µM
  IC50: > 10000 nM
Second compound 1 µM
  IC50: > 10000 nM
Second compound 3.16 µM
  IC50: > 10000 nM
Second compound 10 µM
  IC50: 264 nM
[1]
  viability, T/C: 86.6%
[2]
  viability, T/C: 78.5%
[3]
  viability, T/C: 58.1%
[4]
  viability, T/C: 43.9%
[5]
  viability, T/C: 46.8%
[6]
  viability, T/C: 30.1%
[7]
  viability, T/C: 95.8%
[8]
  viability, T/C: 81.9%
[9]
  viability, T/C: 69.5%
[10]
  viability, T/C: 56.6%
[11]
  viability, T/C: 40.1%
[12]
  viability, T/C: 52.9%
[13]
  viability, T/C: 97.7%
[14]
  viability, T/C: 69.4%
[15]
  viability, T/C: 61.6%
[16]
  viability, T/C: 35.5%
[17]
  viability, T/C: 54.9%
[18]
  viability, T/C: 59.8%
[19]
  viability, T/C: 82.5%
[20]
  viability, T/C: 59.7%
[21]
  viability, T/C: 56.1%
[22]
  viability, T/C: 34%
[23]
  viability, T/C: 68.8%
[24]
  viability, T/C: 51%
[25]
  viability, T/C: 60.6%
[26]
  viability, T/C: 70.3%
[27]
  viability, T/C: 52.3%
[28]
  viability, T/C: 44.1%
[29]
  viability, T/C: 67.8%
[30]
  viability, T/C: 60.6%
[31]
  viability, T/C: 89.6%
[32]
  viability, T/C: 68.8%
[33]
  viability, T/C: 43.8%
[34]
  viability, T/C: 32.6%
[35]
  viability, T/C: 50%
[36]
  viability, T/C: 59.5%

## CC1COCCN1c1cc(C2(O)CC3CCC(C2)O3)c2cnn(-c3ccn[nH]3)c2n1 (centres undefined) + CN(C)c1ccc(Nc2c3ccc(NC(=O)CCN4CCCC4)cc3nc3cc(NC(=O)CCN4CCCC4)ccc23)cc1
Second compound 0.0316 µM
  IC50: 786 nM
Second compound 0.1 µM
  IC50: 461 nM
Second compound 0.316 µM
  IC50: 1690 nM
Second compound 1 µM
  IC50: 211 nM
Second compound 3.16 µM
  IC50: > 10000 nM
Second compound 10 µM
  IC50: > 10000 nM
[1]
  viability, T/C: 78.9%
[2]
  viability, T/C: 74.6%
[3]
  viability, T/C: 57.6%
[4]
  viability, T/C: 46.9%
[5]
  viability, T/C: 44.2%
[6]
  viability, T/C: 51.1%
[7]
  viability, T/C: 105%
[8]
  viability, T/C: 79%
[9]
  viability, T/C: 55.3%
[10]
  viability, T/C: 37.1%
[11]
  viability, T/C: 43.8%
[12]
  viability, T/C: 48.5%
[13]
  viability, T/C: 86.9%
[14]
  viability, T/C: 60.2%
[15]
  viability, T/C: 58.5%
[16]
  viability, T/C: 42.2%
[17]
  viability, T/C: 48.7%
[18]
  viability, T/C: 54.2%
[19]
  viability, T/C: 77.7%
[20]
  viability, T/C: 52.8%
[21]
  viability, T/C: 44.8%
[22]
  viability, T/C: 40.7%
[23]
  viability, T/C: 49%
[24]
  viability, T/C: 60%
[25]
  viability, T/C: 55.8%
[26]
  viability, T/C: 65.7%
[27]
  viability, T/C: 70.2%
[28]
  viability, T/C: 45.6%
[29]
  viability, T/C: 47.9%
[30]
  viability, T/C: 66.5%
[31]
  viability, T/C: 82.7%
[32]
  viability, T/C: 61.9%
[33]
  viability, T/C: 69.4%
[34]
  viability, T/C: 47%
[35]
  viability, T/C: 41.8%
[36]
  viability, T/C: 66.5%
